Values quoted from earlier work in patent publication EP3331513B1, “HYDROALCOHOLIC SOLUTIONS COLOURED WITH CHLORHEXIDINE, METHODS FOR THE PRODUCTION THEREOF, AND USES OF SAME” (Université Claude Bernard Lyon I, priority 2015, dated 2017).

[H]/N=C(\N/C(=N/[H])NCCCCCCNC(=N)NC(=N)Nc1ccc(Cl)cc1)Nc1ccc(Cl)cc1 [digluconate de chlorhexidine]
solubilité dans les alcools (alcools primaires en C2 et C3, notamment éthanol): assez soluble
solubilité dans l'eau (eau): miscible à l'eau
